Data taken from publication PMC6370799, “Flavones hydroxylated at 5, 7, 3′ and 4′ ameliorate skin fibrosis via inhibiting activin receptor-like kinase 5 kinase activity” (Cell Death & Disease, 2019).
pIC50: −log10 of the molar value.

What follows are compounds tested against T1, activin receptor-like kinase 5 (ALK5) (Homo sapiens, UniProt P36897) (assay: LanthaScreen Eu kinase binding assay (TR-FRET tracer displacement); also in vitro GST-Smad3 phosphorylation assay).
T1 construct: gene TGFBR1; GST-ALK5
T1 sequence (P36897 34-503): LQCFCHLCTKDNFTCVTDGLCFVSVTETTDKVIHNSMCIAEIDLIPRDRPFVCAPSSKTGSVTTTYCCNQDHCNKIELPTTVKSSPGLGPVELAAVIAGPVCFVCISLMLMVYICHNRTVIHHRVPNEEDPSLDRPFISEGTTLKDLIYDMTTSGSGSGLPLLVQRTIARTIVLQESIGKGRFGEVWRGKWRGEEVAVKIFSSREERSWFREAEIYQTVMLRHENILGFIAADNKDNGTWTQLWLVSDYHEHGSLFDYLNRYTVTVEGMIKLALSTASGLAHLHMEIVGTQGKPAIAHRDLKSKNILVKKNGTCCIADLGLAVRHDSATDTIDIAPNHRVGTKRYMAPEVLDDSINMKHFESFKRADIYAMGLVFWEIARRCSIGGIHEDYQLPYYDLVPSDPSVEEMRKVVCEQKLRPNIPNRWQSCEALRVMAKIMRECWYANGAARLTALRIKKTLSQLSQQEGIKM

Structure (SMILES)	pIC50
O=c1cc(-c2ccc(O)c(O)c2)oc2cc(O)cc(O)c12 [luteolin]	5.97
O=c1c(O)c(-c2cc(O)c(O)c(O)c2)oc2cc(O)cc(O)c12 [myricetin]	5.39
O=c1c(O)c(-c2ccc(O)c(O)c2)oc2cc(O)cc(O)c12 [quercetin]	5.83
